In patent US10071099B2, “Medicament for suppressing malignant tumor metastasis” (NATIONAL CEREBRAL AND CARDIOVASCULAR CENTER, priority 2014, dated 2018):

Legend:
mouse melanoma B16-F10 [1] = experiment: Blood-borne lung metastasis model, mouse melanoma tail vein injection (LPS); type: in vivo; settings: for LPS-induced lung metastasis of tumor cells (nodules): 30 mg/kg-day oral from 4 days before LPS, LPS 1 mg/kg tail vein 4 to 5 hours before B16-F10 injection, 14 days after tumor cell injection, C57BL6 mice
Method: Lung Metastasis Suppressing Effect of Medicament in Blood-Borne Metastasis Model Established by Injection of Mouse Melanoma to Mouse Tail Vein (LPS)
Eight-week-old male C57BL6 mice (purchased from Japan SLC, Inc.) were used. Lipopolysaccharide (LPS) in an amount of 1 mg/kg was injected to the tail vein of each mouse, and mouse melanoma B16-F10 was injected to the tail vein 4 to 5 hours later. At this time, mouse melanoma was injected into the tail vein on the different side from the tail vein to which LPS was injected. Mouse melanoma B16-F10 was purchased from ATCC, and cultured in DMEM (Life Technologies Corp.) containing 10% FCS under 5% CO2 at 37° C. The cells in a semiconfluent state were treated with EDTA-trypsin (a 0.01 to 0.125% solution) and then centrifuged. As an angiotensin type 2 receptor agonist, Compounds A to E were used. The cells were suspended in serum free DMEM so as to be 3×10^6 cells/mL for Compound A administration group, and 2×10^6 cells/mL for Compound B to E administration groups. The melanoma cell suspension ([…]) at a density of 3×10^5 cells for Compound A administration group or at a density of […] for Compound B to E administration groups was injected to the tail vein of the mice.
To the angiotensin type 2 receptor agonist group, a 0.5% carboxymethylcellulose aqueous solution (0.2 mg/mL) prepared so as to contain 30 mg/kg-day of the agent (each of Compounds A to E) was orally given from 4 days before the start of the LPS administration to the end of the experiment (14 days after the injection of melanoma cells) in a continuous manner. To the control group, LPS was not injected, and only a 0.5% carboxymethylcellulose aqueous solution not containing the agent (any of Compounds A to E) was orally given for the experiment.
In addition, for the purpose of comparison, an experiment in which LPS was not injected and Compound A was orally administered and an experiment in which LPS was injected and the 0.5% carboxymethylcellulose aqueous solution not containing the agent (any of Compounds A to E) was orally given were performed. […]

mouse melanoma B16-F10 [2] = experiment: Blood-borne lung metastasis model, mouse melanoma tail vein injection (CDDP); type: in vivo
Method: Lung Metastasis Suppressing Effect of Medicament in Blood-Borne Metastasis Model Established by Injection of Mouse Melanoma to Mouse Tail Vein (CDDP)
Eight-week-old male C57BL6 mice (purchased from Japan SLC, Inc.) were used. Mouse melanoma B16-F10 was purchased from ATCC, and cultured in Dulbecco's Modified Eagle Medium (DMEM) (Life Technologies Corp.) containing 10% fetal calf serum (FCS) under 5% CO2 at 37° C. The cells in a semiconfluent state were treated with EDTA-trypsin (a 0.01 to 0.125% solution), centrifuged, and then suspended in serum free DMEM so as to be 3×10^6 cells/mL. The melanoma cell suspension (100 μL/mouse, 3×10^5 cells) was injected to the tail vein of the mice.
As pretreatment, 2.5 mg/kg of cisplatin (CDDP) was injected to the tail vein of the mice 2 days before the injection of the melanoma cells into the tail vein.
As an angiotensin type 2 receptor agonist, Compound A was used.
To the angiotensin type 2 receptor agonist group, a 0.5% carboxymethylcellulose aqueous solution prepared so as to contain 30 mg/kg of Compound A was orally given from 4 days before the start of the CDDP administration to the end of the experiment (14 days after the injection of melanoma cells) in a continuous manner.
To the control group, CDDP was not injected, and only a 0.5% carboxymethylcellulose aqueous solution not containing the agent was orally given for the experiment.
In addition, for the purpose of comparison, an experiment in which CDDP was not injected and Compound A was orally administered and an experiment in which CDDP was injected and the 0.5% carboxymethylcellulose aqueous solution not containing the agent (Compound A) was orally given were performed.
The number of animals in each group was n=5.
The lung metastasis of the tumor cells 14 days after the tumor cell injection was observed. […]

SMILES	LPS-induced lung metastasis of tumor cells (nodules) (mouse melanoma B16-F10 [1])	lung metastasis of tumor cells without LPS administration (mouse melanoma B16-F10 [1]; 30 mg/kg-day oral, no LPS, 14 days after B16-F10 tail vein injection)	CDDP-induced exacerbation of the lung metastasis of tumor cells (nodules) (mouse melanoma B16-F10 [2]; 30 mg/kg oral from 4 days before CDDP, CDDP 2.5 mg/kg tail vein 2 days before B16-F10 injection, 14 days after tumor cell injection, C57BL6 mice)	lung metastasis of tumor cells without CDDP administration (mouse melanoma B16-F10 [2]; 30 mg/kg oral, no CDDP, 14 days after B16-F10 tail vein injection, C57BL6 mice)	effect of cisplatin (CDDP) administration on lung metastasis of tumor cells (mouse melanoma B16-F10 [2]; CDDP 2.5 mg/kg tail vein 2 days before B16-F10 injection, 14 days after tumor cell injection)
CCN(CC)C(=O)[C@H](Cc1ccc(NC(=O)c2ccccc2)cc1)C(=O)NS(=O)(=O)c1ccc2ccccc2c1 [Compound A, (2S)-2-[4-(benzoylamino)benzyl]-N,N-diethyl-N′-(2-naphthylsulfonyl)malonamide]	significantly suppressed the lung metastasis of tumor cells	suppresses the lung metastasis of tumor cells	significantly suppressed the CDDP-induced exacerbation of the lung metastasis	capable of suppressing the lung metastasis of tumor cells	–
CCN(CC)C(=O)[C@H](Cc1ccc(NC(=O)c2ccc(Cl)cc2N)cc1)C(=O)NS(=O)(=O)c1ccc2ccccc2c1 [Compound E, (2S)-2-{4-[(2-amino-4-chlorobenzoyl)amino]benzyl}-N,N-diethyl-N′-(2-naphthylsulfonyl)malonamide]	significantly suppressed the lung metastasis of tumor cells	–	–	–	–
N.N.[Cl][Pt][Cl] [cisplatin (CDDP), cisplatin, reference compound]	–	–	–	–	augmented the lung metastasis of tumor cells
